# US6169084A, “2-methyl-thieno-benzodiazepine formulation” (Eli Lilly and Company, priority 1998, dated 2001)
# Assays:
# [1] = Discoloration of olanzapine in contact with excipients; type: physicochemical; conditions: contacted with certain excipients including powder blends; exacerbated by ambient air, elevated temperatures, moist environments
# [2] = dogs, male vs female; cited from earlier work
smiles,measurement,setting,value
"Cc1cc2c(s1)Nc1ccccc1N=C2N1CCN(C)CC1 [olanzapine, 2-methyl-4-(4-methyl-1-piperazinyl)-10H-thieno[2,3-b][1,5]benzodiazepine]",discoloration (stability),[1],undergoes undesirable discoloration
same,difference in the pharmacokinetic of olanzapine between the sexes,[2],no difference
